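Where inhibition never reached the appropriate level, the endpoint shown equals the highest concentration tested. Otherwise, values were interpolated linearly from a five-concentration, 48-hour dose response in 96-well plates. TGI: total growth inhibition.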
Experiments:
Assay in all cases: NCI tumour cell line growth inhibition, 48 h
[1] = tested on: OVCAR-8 ovarian
[2] = tested on: UACC-62 melanoma
[3] = tested on: DMS 273 small cell lung
[4] = tested on: KM12 colon
[5] = tested on: OVCAR-3 ovarian
[6] = tested on: SNB-75 CNS
[7] = tested on: SW-620 colon
[8] = tested on: A549 NSCLC
[9] = tested on: UACC-257 melanoma
[10] = tested on: K-562 leukemia
[11] = tested on: M14 melanoma
[12] = tested on: NCI-H460 lung
[13] = tested on: IGROV1 ovarian
[14] = tested on: SNB-78 CNS
[15] = tested on: OVCAR-5 ovarian
[16] = tested on: LXFL 529 NSCLC
[17] = tested on: XF 498 CNS
[18] = tested on: RXF 393 renal
[19] = tested on: 786-0 renal
[20] = tested on: OVCAR-4 ovarian
[21] = tested on: M19-MEL melanoma
[22] = tested on: SF-268 CNS
[23] = tested on: HCT-15 colon
[24] = tested on: TK-10 renal
[25] = tested on: NCI-H522 lung
[26] = tested on: NCI-H23 lung
[27] = tested on: CCRF-CEM leukemia
[28] = tested on: SF-539 CNS
[29] = tested on: HOP-62 NSCLC
[30] = tested on: HCT-116 colon
[31] = tested on: DLD-1 colon
[32] = tested on: SF-295 CNS
[33] = tested on: DMS 114 small cell lung
[34] = tested on: CAKI-1 renal
[35] = tested on: HCC-2998 colon
[36] = tested on: HOP-92 NSCLC
[37] = tested on: COLO 205 colon
[38] = tested on: HT29 colon
[39] = tested on: MALME-3M melanoma
[40] = tested on: SK-OV-3 ovarian
[41] = tested on: KM20L2 colon
[42] = tested on: SR leukemia
[43] = tested on: SK-MEL-5 melanoma
[44] = tested on: UO-31 renal
[45] = tested on: SN12C renal
[46] = tested on: RPMI-8226 leukemia
[47] = tested on: HL-60(TB) leukemia
[48] = tested on: RXF-631 renal
[49] = tested on: SNB-19 CNS
[50] = tested on: A498 renal
[51] = tested on: MOLT-4 leukemia
[52] = tested on: NCI-H226 lung
[53] = tested on: EKVX NSCLC
[54] = tested on: U251 CNS
[55] = tested on: LOX IMVI melanoma

Measured: TGI

N#CC(C#N)=C(C(C#N)C#N)C(C#N)C#N
> 100 µM: all assays above
